Assay results taken from US20240400564A1 (Syndax Pharmaceuticals, Inc, priority 2021, published 2024).

Target: hERG (Homo sapiens, UniProt Q12809)
Assay: Patch clamp assay (hERG tail currents, whole-cell)

hERG, sequence (Q12809 whole entry): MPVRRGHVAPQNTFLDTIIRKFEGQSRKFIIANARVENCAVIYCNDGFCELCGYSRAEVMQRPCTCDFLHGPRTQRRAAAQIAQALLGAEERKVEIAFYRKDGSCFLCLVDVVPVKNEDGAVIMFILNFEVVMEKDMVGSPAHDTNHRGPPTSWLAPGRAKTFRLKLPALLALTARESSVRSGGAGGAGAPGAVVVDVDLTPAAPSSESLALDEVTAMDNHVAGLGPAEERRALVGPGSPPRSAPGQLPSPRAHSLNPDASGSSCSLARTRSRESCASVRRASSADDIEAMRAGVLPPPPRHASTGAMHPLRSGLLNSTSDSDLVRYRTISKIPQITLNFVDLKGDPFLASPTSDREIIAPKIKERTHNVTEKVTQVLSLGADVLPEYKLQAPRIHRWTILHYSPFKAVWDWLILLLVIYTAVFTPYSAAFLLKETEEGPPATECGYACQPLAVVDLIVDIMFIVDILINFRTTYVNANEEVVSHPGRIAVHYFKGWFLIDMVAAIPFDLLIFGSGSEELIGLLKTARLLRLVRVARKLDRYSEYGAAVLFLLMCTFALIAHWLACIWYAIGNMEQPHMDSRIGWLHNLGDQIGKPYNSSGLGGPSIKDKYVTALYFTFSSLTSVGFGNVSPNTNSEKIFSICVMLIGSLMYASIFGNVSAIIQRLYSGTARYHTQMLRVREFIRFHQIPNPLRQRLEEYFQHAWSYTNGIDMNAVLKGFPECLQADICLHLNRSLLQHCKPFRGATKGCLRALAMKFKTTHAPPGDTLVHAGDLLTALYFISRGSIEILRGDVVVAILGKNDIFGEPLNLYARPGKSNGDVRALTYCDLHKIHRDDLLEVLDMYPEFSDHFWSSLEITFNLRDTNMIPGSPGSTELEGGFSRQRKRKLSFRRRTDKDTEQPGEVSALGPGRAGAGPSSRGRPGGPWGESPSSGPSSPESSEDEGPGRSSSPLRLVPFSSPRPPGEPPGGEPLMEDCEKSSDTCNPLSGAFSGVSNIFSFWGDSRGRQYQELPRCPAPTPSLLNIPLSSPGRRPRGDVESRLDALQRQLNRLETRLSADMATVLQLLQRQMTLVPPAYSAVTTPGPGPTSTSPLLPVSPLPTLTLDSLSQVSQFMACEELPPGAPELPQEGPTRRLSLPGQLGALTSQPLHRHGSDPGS

| SMILES | hERG % Remaining (10 μM compound) | hERG % Remaining (30 μM compound) | other results |
| --- | --- | --- | --- |
| CCN(C(=O)c1cc(F)ccc1Oc1cncnc1N1CC2(CCN(C[C@@H]3CC[C@@H](NS(=O)(=O)c4ccccc4OC)CO3)CC2)C1)C(C)C [Example 65, N-Ethyl-5-fluoro-N-isopropyl-2-((4-(7-(((2S,5R)-5-((2-methoxyphenyl)sulfonamido)tetrahydro-2H-pyran-2-yl)methyl)-2,7-diazaspiro[3.5]nonan-2-yl)pyrimidin-5-yl)oxy)benzamide] | ++ (233% and ≤66%) | + (<33%) | – |
| CCN(C(=O)c1cc(F)ccc1Oc1cncnc1N1CC2(CCN(C[C@@H]3CC[C@@H](NS(=O)(=O)c4cccc(OC)c4)CO3)CC2)C1)C(C)C [Example 66, N-Ethyl-5-fluoro-N-isopropyl-2-((4-(7-(((2S,5R)-5-((3-methoxyphenyl)sulfonamido)tetrahydro-2H-pyran-2-yl)methyl)-2,7-diazaspiro[3.5]nonan-2-yl)pyrimidin-5-yl)oxy)benzamide] | + (<33%) | + (<33%) | – |
| CCN(C(=O)c1cc(F)ccc1Oc1cncnc1N1CC2(CCN(C[C@@H]3CC[C@@H](NS(=O)(=O)N4CCC4)CO3)CC2)C1)C(C)C [Example 69, 2-((4-(7-(((2S,5R)-5-(Azetidine-1-sulfonamido)tetrahydro-2H-pyran-2-yl)methyl)-2,7-diazaspiro[3.5]nonan-2-yl)pyrimidin-5-yl)oxy)-N-ethyl-5-fluoro-N-isopropylbenzamide] | +++ (≥66%) | ++ (233% and ≤66%) | – |
| CCN(C(=O)c1cc(F)ccc1Oc1cncnc1N1CC2(CCN(C[C@@H]3CC[C@@H](NS(=O)(=O)NC)CO3)CC2)C1)C(C)C [Example 76, N-Ethyl-5-fluoro-N-isopropyl-2-((4-(7-(((2S,5R)-5-((N-methylsulfamoyl)amino)tetrahydro-2H-pyran-2-yl)methyl)-2,7-diazaspiro[3.5]nonan-2-yl)pyrimidin-5-yl)oxy)benzamide] | +++ (≥66%) | +++ (≥66%) | – |
| CC(C)N(C(=O)c1cc(F)ccc1Oc1cncnc1N1CC2(CCN(C[C@@H]3CC[C@@H](NS(=O)(=O)N4CCOCC4)CO3)CC2)C1)C(C)C [Example 78, 5-Fluoro-N,N-diisopropyl-2-((4-(7-(((2S,5R)-5-(morpholine-4-sulfonamido)tetrahydro-2H-pyran-2-yl)methyl)-2,7-diazaspiro[3.5]nonan-2-yl)pyrimidin-5-yl)oxy)benzamide] | +++ (≥66%) | +++ (≥66%) | – |
| CC(C)N(C(=O)c1cc(F)ccc1Oc1cncnc1N1CC2(CCN(C[C@@H]3CC[C@@H](NS(=O)(=O)N4CCC4)CO3)CC2)C1)C(C)C [Example 88, 2-((4-(7-(((2S,5R)-5-(Azetidine-1-sulfonamido)tetrahydro-2H-pyran-2-yl)methyl)-2,7-diazaspiro[3.5]nonan-2-yl)pyrimidin-5-yl)oxy)-5-fluoro-N,N-diisopropylbenzamide] | – | +++ (≥66%) | – |
| CC(C)N(C(=O)c1cc(F)ccc1Oc1cncnc1N1CC2(CCN(C[C@@H]3CC[C@@H](NS(=O)(=O)N(C)C(C)C)CO3)CC2)C1)C(C)C [Example 89, 5-Fluoro-N,N-diisopropyl-2-((4-(7-(((2S,5R)-5-((N-isopropyl-N-methylsulfamoyl)amino)tetrahydro-2H-pyran-2-yl)methyl)-2,7-diazaspiro[3.5]nonan-2-yl)pyrimidin-5-yl)oxy)benzamide] | – | ++ (233% and ≤66%) | – |
| CC(C)N(C(=O)c1cc(F)ccc1Oc1cncnc1N1CC2(CCN(C[C@@H]3CC[C@@H](NS(N)(=O)=O)CO3)CC2)C1)C(C)C [Example 90, 5-Fluoro-N,N-diisopropyl-2-((4-(7-(((2S,5R)-5-(sulfamoylamino)tetrahydro-2H-pyran-2-yl)methyl)-2,7-diazaspiro[3.5]nonan-2-yl)pyrimidin-5-yl)oxy)benzamide] | +++ (≥66%) | +++ (≥66%) | – |
| CC(C)N(C(=O)c1cc(F)ccc1Oc1cncnc1N1CC2(CCN(C[C@@H]3CC[C@@H](NS(=O)(=O)N(C)C)CO3)CC2)C1)C1CC1 [Example 93, N-Cyclopropyl-2-((4-(7-(((2S,5R)-5-((N,N-dimethylsulfamoyl)amino)tetrahydro-2H-pyran-2-yl)methyl)-2,7-diazaspiro[3.5]nonan-2-yl)pyrimidin-5-yl)oxy)-5-fluoro-N-isopropylbenzamide] | +++ (≥66%) | ++ (233% and ≤66%) | hERG % Remaining (1 μM compound): +++ (≥66%); hERG % Remaining (3 μM compound): +++ (≥66%); hERG % Remaining (100 μM compound): + (<33%) |
| CC(C)N(CC(F)F)C(=O)c1cc(F)ccc1Oc1cncnc1N1CC2(CCN(C[C@@H]3CC[C@@H](NS(=O)(=O)N4CCOCC4)CO3)CC2)C1 [Example 94, N-(2,2-Difluoroethyl)-5-fluoro-N-isopropyl-2-((4-(7-(((2S,5R)-5-(morpholine-4-sulfonamido)tetrahydro-2H-pyran-2-yl)methyl)-2,7-diazaspiro[3.5]nonan-2-yl)pyrimidin-5-yl)oxy)benzamide] | +++ (≥66%) | ++ (233% and ≤66%) | – |
| CC(C)N(CC(F)F)C(=O)c1cc(F)ccc1Oc1cncnc1N1CC2(CCN(C[C@@H]3CC[C@@H](NS(=O)(=O)N(C)C)CO3)CC2)C1 [Example 95, N-(2,2-Difluoroethyl)-2-((4-(7-(((2S,5R)-5-((N,N-dimethylsulfamoyl)amino)tetrahydro-2H-pyran-2-yl)methyl)-2,7-diazaspiro[3.5]nonan-2-yl)pyrimidin-5-yl)oxy)-5-fluoro-N-isopropylbenzamide] | +++ (≥66%) | ++ (233% and ≤66%) | hERG IC50 (μM) (hERG stably transfected HEK 293 cells): + (<25 PM) |
| CCN(CC)S(=O)(=O)N[C@@H]1CC[C@@H](CN2CCC3(CC2)CN(c2ncncc2Oc2ccc(F)cc2C(=O)N(CC(F)F)C(C)C)C3)OC1 [Example 97, 2-((4-(7-(((2S,5R)-5-((N,N-Diethylsulfamoyl)amino)tetrahydro-2H-pyran-2-yl)methyl)-2,7-diazaspiro[3.5]nonan-2-yl)pyrimidin-5-yl)oxy)-N-(2,2-difluoroethyl)-5-fluoro-N-isopropylbenzamide] | ++ (233% and ≤66%) | + (<33%) | – |
| CC(C)N(CC(F)F)C(=O)c1cc(F)ccc1Oc1cncnc1N1CC2(CCN(C[C@@H]3CC[C@@H](NS(=O)(=O)N4CCC4)CO3)CC2)C1 [Example 99, 2-((4-(7-(((2S,5R)-5-(Azetidine-1-sulfonamido)tetrahydro-2H-pyran-2-yl)methyl)-2,7-diazaspiro[3.5]nonan-2-yl)pyrimidin-5-yl)oxy)-N-(2,2-difluoroethyl)-5-fluoro-N-isopropylbenzamide] | +++ (≥66%) | ++ (233% and ≤66%) | – |
| CC(C)N(CC(F)F)C(=O)c1cc(F)ccc1Oc1cncnc1N1CC2(CCN(C[C@@H]3CC[C@@H](NS(=O)(=O)N(C)C(C)C)CO3)CC2)C1 [Example 101, N-(2,2-Difluoroethyl)-5-fluoro-N-isopropyl-2-((4-(7-(((2S,5R)-5-((N-isopropyl-N-methylsulfamoyl)amino)tetrahydro-2H-pyran-2-yl)methyl)-2,7-diazaspiro[3.5]nonan-2-yl)pyrimidin-5-yl)oxy)benzamide] | – | + (<33%) | – |
| CNS(=O)(=O)N[C@@H]1CC[C@@H](CN2CCC3(CC2)CN(c2ncncc2Oc2ccc(F)cc2C(=O)N(CC(F)F)C(C)C)C3)OC1 [Example 102, N-(2,2-Difluoroethyl)-5-fluoro-N-isopropyl-2-((4-(7-(((2S,5R)-5-((N-methylsulfamoyl)amino)tetrahydro-2H-pyran-2-yl)methyl)-2,7-diazaspiro[3.5]nonan-2-yl)pyrimidin-5-yl)oxy)benzamide] | – | +++ (≥66%) | – |
| CC(C)N(CC(F)(F)F)C(=O)c1cc(F)ccc1Oc1cncnc1N1CC2(CCN(C[C@@H]3CC[C@@H](NS(=O)(=O)N(C)C)CO3)CC2)C1 [Example 107, 2-((4-(7-(((2S,5R)-5-((N,N-Dimethylsulfamoyl)amino)tetrahydro-2H-pyran-2-yl)methyl)-2,7-diazaspiro[3.5]nonan-2-yl)pyrimidin-5-yl)oxy)-5-fluoro-N-isopropyl-N-(2,2,2-trifluoroethyl)benzamide] | +++ (≥66%) | ++ (233% and ≤66%) | – |
| CC(C)N(C(=O)c1cc(F)ccc1Oc1cncnc1N1CC2(CCN(C[C@@H]3CC[C@@H](NS(=O)(=O)C4CC4)CO3)CC2)C1)C1CC(F)(F)C1 [Example 111, 2-((4-(7-(((2S,5R)-5-(Cyclopropanesulfonamido)tetrahydro-2H-pyran-2-yl)methyl)-2,7-diazaspiro[3.5]nonan-2-yl)pyrimidin-5-yl)oxy)-N-(3,3-difluorocyclobutyl)-5-fluoro-N-isopropylbenzamide] | ++ (233% and ≤66%) | + (<33%) | – |
| CC(C)N(C(=O)c1cc(F)ccc1Oc1cncnc1N1CC2(CCN(C[C@@H]3CC[C@@H](NS(=O)(=O)N(C)C)CO3)CC2)C1)C1CC(F)(F)C1 [Example 113, N-(3,3-Difluorocyclobutyl)-2-((4-(7-(((2S,5R)-5-((N,N-dimethylsulfamoyl)amino)tetrahydro-2H-pyran-2-yl)methyl)-2,7-diazaspiro[3.5]nonan-2-yl)pyrimidin-5-yl)oxy)-5-fluoro-N-isopropylbenzamide] | +++ (≥66%) | ++ (233% and ≤66%) | – |
| CCN(CC)S(=O)(=O)N[C@@H]1CC[C@@H](CN2CCC3(CC2)CN(c2ncncc2Oc2ccc(F)cc2C(=O)N(C(C)C)C2CC(F)(F)C2)C3)OC1 [Example 114, 2-((4-(7-(((2S,5R)-5-((N,N-Diethylsulfamoyl)amino)tetrahydro-2H-pyran-2-yl)methyl)-2,7-diazaspiro[3.5]nonan-2-yl)pyrimidin-5-yl)oxy)-N-(3,3-difluorocyclobutyl)-5-fluoro-N-isopropylbenzamide] | + (<33%) | + (<33%) | – |
| CC(C)N(C(=O)c1cc(F)ccc1Oc1cncnc1N1CC2(CCN(C[C@@H]3CC[C@@H](NS(=O)(=O)N4CCC4)CO3)CC2)C1)C1CC(F)(F)C1 [Example 118, 2-((4-(7-(((2S,5R)-5-(Azetidine-1-sulfonamido)tetrahydro-2H-pyran-2-yl)methyl)-2,7-diazaspiro[3.5]nonan-2-yl)pyrimidin-5-yl)oxy)-N-(3,3-difluorocyclobutyl)-5-fluoro-N-isopropylbenzamide] | ++ (233% and ≤66%) | + (<33%) | – |
